How the values were obtained:
[1] = system: corn (maize) cv. Pioneer 33G26; experiment: Test G safening on corn by naphthalic anhydride seed treatment, preemergence; type: in vivo, Zea mays
Excerpt: This test evaluated the safening of compounds of the invention on corn (maize; Zea mays L.) cv. ‘Pioneer 33G26’ by seed treatment with naphthalic anhydride (1,8-naphthalic anhydride). All corn seed had been first treated with fludioxonil and metaxyl applied at the manufacturer's recommended rate as per the Pioneer 33G26 label. Some of the corn seed were subsequently also treated with naphthalic anhydride as a 1% by weight seed dressing. The corn seed were planted in pots containing pasteurized Sassafras sandy loam soil, and then treatments were applied preemergence the same day. Treatments were applied by spraying the test compounds formulated in a non-phytotoxic solvent mixture, using a flat fan nozzle and a spray volume of 280 L/ha. The treatments were triply replicated and the results subsequently averaged. The pots were placed on a greenhouse bench using a complete randomized block design except for the first replicate, which was unrandomized. The plants were grown in the greenhouse and watered as needed with a dilute nutrient solution containing 200 ppm of N. Illumination was daylight supplemented by artificial sources to maintaining a photoperiod of 16 hours. The temperature was maintained at 28±2° C. during the day and 23±2° C. at night. The plant response was visually rated 25 days after treatment in comparison to untreated controls using a scale of 0 to 100, with 0 representing no effect and 100 representing complete plant death.

annual blugrass = experiment: Test F pre-/postemergence herbicide test; type: in vivo, Poa annua
Excerpt: (§1) Seeds of plant species selected from annual blugrass (Poa annua L.), blackgrass (Alopecurus myosuroides Huds.), catchweed bedstraw (Gallium aparine L.), common chickweed (Stellaria media (L.) Vill./Cyr.), downy bromegrass (Bromus tectorum L.), green foxtail (Setaria viridis (L.) Beauv.), Italian ryegrass (Lolium multiflorum Lam.), kochia (Kochia scoparia (L.). Schrad.), lambsquarters (Chenopodium album L.), littleseed canarygrass (Phalaris minor Retz.), pigweed (Amaranthus retroflexus L.), Russian thistle (Salsola kali L. ssp. Ruthenica (Iljin) Soo), wild buckwheat (Polygonum convolvulus L.), wild mustard (Sinapis arvensis L.), wild oat (Avena fatua L.), windgrass (Apera spica-venti (L.) Beauv.), winter barley (Hordeum vulgare L.), and wheat (Triticum aestivum L.) were planted and treated preemergence with test chemicals formulated in a non-phytotoxic solvent mixture which included a surfactant.
(§2) At the same time, plants selected from these crop and weed species were treated with postemergence applications of some of the test chemicals formulated in the same manner. Plants ranged in height from 2 to 18 cm (1- to 4-leaf stage) for postemergence treatments. Treated plants and controls were maintained in a greenhouse for 12 to 14 days, after which time all species were compared to controls and visually evaluated. Plant response ratings, summarized in Table F, are based on a scale of 0 to 100 where 0 is no effect and 100 is complete control. A dash (-) response means no test result.

green foxtail = experiment: Test F pre-/postemergence herbicide test; type: in vivo, Setaria viridis
Excerpt: as §1, §2

lambsquarters = experiment: Test F pre-/postemergence herbicide test; type: in vivo, Chenopodium album
Excerpt: as §1, §2

windgrass = experiment: Test F pre-/postemergence herbicide test; type: in vivo, Apera spica-venti
Excerpt: as §1, §2

wheat = experiment: Test F pre-/postemergence herbicide test; type: in vivo, Triticum aestivum
Excerpt: as §1, §2

wild buckwheat = experiment: Test F pre-/postemergence herbicide test; type: in vivo, Polygonum convolvulus
Excerpt: as §1, §2

Russian thistle = experiment: Test F pre-/postemergence herbicide test; type: in vivo, Salsola kali
Excerpt: as §1, §2

For `CCn1nc(C(C)(C)C)cc1C(=O)Nc1cc(C(=O)N(C)C)ccc1F` [Compound 6, N-[5-[(dimethylamino)carbonyl]-2-fluorophenyl]-3-(1,1-dimethylethyl)-1-ethyl-1H-pyrazole-5-carboxamide], the “Response of corn, With 1% naphthalic anhydride seed treatment” value ([1]; 62 g a.i./ha) was 60, the “Response of corn, Without naphthalic anhydride seed treatment” value ([1]; 62 g a.i./ha) was 65 and the “Response of corn, With 1% naphthalic anhydride seed treatment” value ([1]; 125 g a.i./ha) was 62. For the same compound, the “Response of corn, Without naphthalic anhydride seed treatment” value ([1]; 125 g a.i./ha) was 68, the “Response of corn, With 1% naphthalic anhydride seed treatment” value ([1]; 250 g a.i./ha) was 78 and the “Response of corn, Without naphthalic anhydride seed treatment” value ([1]; 250 g a.i./ha) was 88. For the same compound, the “Response of corn, With 1% naphthalic anhydride seed treatment” value ([1]; 500 g a.i./ha) was 70 and the “Response of corn, Without naphthalic anhydride seed treatment” value ([1]; 500 g a.i./ha) was 92.
`CCn1nc(C(C)(C)C)cc1C(=O)Nc1cc(C(=O)OC(C)C)c(F)cc1F` [Compound 248] was tested, and the “Plant response rating (0-100), Bluegrass” value (annual blugrass; Postemergence, 31 g ai/ha) was 50, the “Plant response rating (0-100), Bluegrass” value (annual blugrass; Postemergence, 62 g ai/ha) was 50 and the “Plant response rating (0-100), Bluegrass” value (annual blugrass; Postemergence, 125 g ai/ha) was 60. For the same compound, the “Plant response rating (0-100), Bluegrass” value (annual blugrass; Postemergence, 250 g ai/ha) was 70, the “Plant response rating (0-100), Bluegrass” value (annual blugrass; Preemergence, 31 g ai/ha) was 70 and the “Plant response rating (0-100), Bluegrass” value (annual blugrass; Preemergence, 62 g ai/ha) was 70. The “Plant response rating (0-100), Bluegrass” value (annual blugrass; Preemergence, 125 g ai/ha) was 100, the “Plant response rating (0-100), Bluegrass” value (annual blugrass; Preemergence, 250 g ai/ha) was 100 and the “Plant response rating (0-100), Foxtail, Green” value (from here on “Plant response rating … Green”) (green foxtail; Postemergence, 31 g ai/ha) was 50. For the same compound, the “Plant response rating … Green” value (green foxtail; Postemergence, 62 g ai/ha) was 60, the “Plant response rating … Green” value (green foxtail; Postemergence, 125 g ai/ha) was 60 and the “Plant response rating … Green” value (green foxtail; Postemergence, 250 g ai/ha) was 65. The “Plant response rating … Green” value (green foxtail; Preemergence, 31 g ai/ha) was 65, the “Plant response rating … Green” value (green foxtail; Preemergence, 62 g ai/ha) was 65 and the “Plant response rating … Green” value (green foxtail; Preemergence, 125 g ai/ha) was 100. The “Plant response rating … Green” value (green foxtail; Preemergence, 250 g ai/ha) was 100, the “Plant response rating (0-100), Lambsquarters” value (lambsquarters; Postemergence, 31 g ai/ha) was 35 and the “Plant response rating (0-100), Lambsquarters” value (lambsquarters; Postemergence, 62 g ai/ha) was 60. The “Plant response rating (0-100), Lambsquarters” value (lambsquarters; Postemergence, 125 g ai/ha) was 60, the “Plant response rating (0-100), Lambsquarters” value (lambsquarters; Postemergence, 250 g ai/ha) was 60 and the “Plant response rating (0-100), Lambsquarters” value (lambsquarters; Preemergence, 31 g ai/ha) was 40. For the same compound, the “Plant response rating (0-100), Lambsquarters” value (lambsquarters; Preemergence, 62 g ai/ha) was 40, the “Plant response rating (0-100), Lambsquarters” value (lambsquarters; Preemergence, 125 g ai/ha) was 100 and the “Plant response rating (0-100), Lambsquarters” value (lambsquarters; Preemergence, 250 g ai/ha) was 100. For the same compound, the “Plant response rating (0-100), Windgrass” value (windgrass; Postemergence, 31 g ai/ha) was 50, the “Plant response rating (0-100), Windgrass” value (windgrass; Postemergence, 62 g ai/ha) was 50 and the “Plant response rating (0-100), Windgrass” value (windgrass; Postemergence, 125 g ai/ha) was 50. The “Plant response rating (0-100), Windgrass” value (windgrass; Postemergence, 250 g ai/ha) was 50, the “Plant response rating (0-100), Windgrass” value (windgrass; Preemergence, 31 g ai/ha) was 70 and the “Plant response rating (0-100), Windgrass” value (windgrass; Preemergence, 62 g ai/ha) was 70. The “Plant response rating (0-100), Windgrass” value (windgrass; Preemergence, 125 g ai/ha) was 100, the “Plant response rating (0-100), Windgrass” value (windgrass; Preemergence, 250 g ai/ha) was 100 and the “Plant response rating (0-100), Wheat” value (wheat; Postemergence, 31 g ai/ha) was 0. The “Plant response rating (0-100), Wheat” value (wheat; Postemergence, 62 g ai/ha) was 5, the “Plant response rating (0-100), Wheat” value (wheat; Postemergence, 125 g ai/ha) was 5 and the “Plant response rating (0-100), Wheat” value (wheat; Postemergence, 250 g ai/ha) was 20. The “Plant response rating (0-100), Wheat” value (wheat; Preemergence, 31 g ai/ha) was 0, the “Plant response rating (0-100), Wheat” value (wheat; Preemergence, 62 g ai/ha) was 0 and the “Plant response rating (0-100), Wheat” value (wheat; Preemergence, 125 g ai/ha) was 0. For the same compound, the “Plant response rating (0-100), Wheat” value (wheat; Preemergence, 250 g ai/ha) was 10, the “Plant response rating (0-100), Buckwheat, Wild” value (“Plant response rating … Wild” for short) (wild buckwheat; Postemergence, 31 g ai/ha) was 50 and the “Plant response rating … Wild” value (wild buckwheat; Postemergence, 62 g ai/ha) was 50. For the same compound, the “Plant response rating … Wild” value (wild buckwheat; Postemergence, 125 g ai/ha) was 50, the “Plant response rating … Wild” value (wild buckwheat; Postemergence, 250 g ai/ha) was 60 and the “Plant response rating … Wild” value (wild buckwheat; Preemergence, 31 g ai/ha) was 30. For the same compound, the “Plant response rating … Wild” value (wild buckwheat; Preemergence, 62 g ai/ha) was 40, the “Plant response rating … Wild” value (wild buckwheat; Preemergence, 125 g ai/ha) was 45 and the “Plant response rating … Wild” value (wild buckwheat; Preemergence, 250 g ai/ha) was 60. The “Plant response rating (0-100), Thistle” value (Russian thistle; Postemergence, 31 g ai/ha) was 25, the “Plant response rating (0-100), Thistle” value (Russian thistle; Postemergence, 62 g ai/ha) was 30 and the “Plant response rating (0-100), Thistle” value (Russian thistle; Postemergence, 125 g ai/ha) was 30. For the same compound, the “Plant response rating (0-100), Thistle” value (Russian thistle; Postemergence, 250 g ai/ha) was 40, the “Plant response rating (0-100), Thistle” value (Russian thistle; Preemergence, 31 g ai/ha) was 30 and the “Plant response rating (0-100), Thistle” value (Russian thistle; Preemergence, 62 g ai/ha) was 30. For the same compound, the “Plant response rating (0-100), Thistle” value (Russian thistle; Preemergence, 125 g ai/ha) was 30 and the “Plant response rating (0-100), Thistle” value (Russian thistle; Preemergence, 250 g ai/ha) was 45.

Reference: patent US20060069132A1, “Azolecarboxamide herbicides” (priority 2004, published 2006)
